# Patent US20060211725A1, “Use” (Astellas Pharma Inc., priority 2002, published 2006)
# “Also recorded” adds a separate entry of the source.
# Assays:
# [1] = system: F344 kidney allograft in LEW recipient rats; assay: Recipient kidney function under rescue treatment of chronic rejection (Example 3); assay type: in vivo, rat
# Experimental: (§1) The rats and kidney transplantation methods described in Example 1 were used. […] The isograft and untreated allograft served as control groups. Blood and urine samples were collected once a week from recipients with kidney grafts described in Example 1 for measuring their plasma creatinine and proteinuria. Plasma creatinine was tested by Sigma Creatinine Kit and proteinuria by Bio-Rad Protein assay.
# [2] = system: F344 kidney allograft in LEW recipient rats; assay: Recipient kidney function, treatment with brief tacrolimus (Example 4); assay type: in vivo, rat
# Experimental: The rats and kidney transplantation methods described in Example 1 were used. Tacrolimus at dose of 1 mg/kg from day 0 to day 9 after transplantation, and the compound (I) at doses of 10 mg/kg and 15 mg/kg from day 28 today 60 after transplantation were administered orally to recipient rats. In this study LEW recipients were briefly treated with oral tacrolimus at 1 mg/kg/day for 10 days after transplantation to avoid acute rejection and slow chronic rejection that gradually destroys the F344 kidney graft, resulting in functional and histological changes similar to the chronic rejection in human. The isograft, untreated allograft and allograft treated with tacrolimus 1 mg/kg for 10 days alone served as control groups. Blood and urine samples were collected once a week from recipients with kidney grafts described in Example 1 for measuring their plasma creatinine and proteinuria. Plasma creatinine was tested by Sigma Creatinine Kit and proteinuria by Bio-Rad Protein assay.
# [3] = system: F344 kidney allograft in LEW recipient rats; assay: Kidney graft histology under rescue treatment, modified Banff criteria (Example 3); assay type: in vivo, rat
# Experimental: as §1
# Using the methods described in Example 1, histological changes of chronic allograft rejection under rescue treatment of the compound (I) were analyzed. Histological sections were blindly evaluated by two histologists and scored semiquantitatively based on modified Banff' criteria for transplant pathology.
# [4] = system: TGFβ gene expression; assay: RT-PCR for TGFβ gene expression in kidney graft (Example 1); assay type: in vivo, rat; conditions: 10 and 20 mg/kg PO day 0-9; day 90 after grafting; vs untreated allograft control
# Experimental: Inbred male Lewis rats (LEW) (RT1^I), weighing 250-300 g, were used as kidney transplantation recipients. Inbred male LEW and Fisher (F344) (RT1^IvI), weighing 250-350 g, were used as isograft and allograft donor rats, respectively. Kidney transplantation was performed using the modified technique of Fisher and Lee. [Fisher et al., Surgery, 58:904-914, 1965] Survival of kidney transplant was measured as time of recipient rat survival. Blood and 24 hr urine samples were collected once a week for plasma creatinine, proteinuria, and the measurement of antibody titer against donor glomeruli basement membrane protein (GBM). Kidney grafts were harvested on the 90th day posttranspalantation and subjected to histology and reverse transcriptase-polymerase chain reaction (RT-PCR) analysis. The compound (I), at doses of 10 mg/kg and 20 mg/kg were administered orally to recipient rats daily from day 0 to day 9 after transplantation. Control isograft and allograft recipients received no drug after transplantation. TGFβ has been considered to play a crucial role for causing chronic allograft rejection. Kidney graft tissues harvested from recipients on day 90th after transplantation were subjected to RT-PCR for TGFβ gene expression. Total RNA was extracted from transplanted kidney tissues by TRIZOL. […]
# [5] = system: antibody against F344 rat glomeruli basement membrane protein; assay: ELISA of plasma antibody against donor GBM (Example 1); assay type: in vivo; conditions: near days 20, 40, 90
# Experimental: (§2) Inbred male Lewis rats (LEW) (RT1^I), weighing 250-300 g, were used as kidney transplantation recipients. Inbred male LEW and Fisher (F344) (RT1^IvI), weighing 250-350 g, were used as isograft and allograft donor rats, respectively. Kidney transplantation was performed using the modified technique of Fisher and Lee. [Fisher et al., Surgery, 58:904-914, 1965] Survival of kidney transplant was measured as time of recipient rat survival. Blood and 24 hr urine samples were collected once a week for plasma creatinine, proteinuria, and the measurement of antibody titer against donor glomeruli basement membrane protein (GBM). Kidney grafts were harvested on the 90th day posttranspalantation and subjected to histology and reverse transcriptase-polymerase chain reaction (RT-PCR) analysis. The compound (I), at doses of 10 mg/kg and 20 mg/kg were administered orally to recipient rats daily from day 0 to day 9 after transplantation. Control isograft and allograft recipients received no drug after transplantation.
# Specific antibody against F344 rat glomeruli basement membrane protein in plasma from LEW recipients with F344 kidneys were also measured in the isograft, untreated allograft and allograft treated with the compound (I) at doses of 10 mg/kg and 20 mg/kg near days 20, 40, and 90 after transplantation by using ELISA assay.
# [6] = system: F344 kidney allograft in LEW recipient rats; assay: Recipient kidney function: plasma creatinine and proteinuria (Example 1); assay type: in vivo, rat; conditions: weekly for 90 days
# Experimental: as §2
# The recipient's kidney function was determined by measuring their plasma creatinine and proteinuria once a week for 90 days. Blood and urine samples were collected from recipients with kidney grafts described in the above. Plasma creatinine was tested by Sigma Creatinine Kit and proteinuria by Bio-Rad Protein assay.
# [7] = rescue 20 mg/kg PO for 3 weeks from onset of raised creatinine or proteinuria, after drug discontinued
# [8] = 20 mg/kg for 3 weeks during ongoing chronic rejection, vs untreated allograft control
# [9] = rescue, From day 40-70 (20 mg/kg for 3 weeks), one line per rat
smiles,measurement,setting,value
"C#CCC/C(O)=C(\C#N)C(=O)Nc1ccc(C(F)(F)F)cc1 [Compound (I), (2Z)-2-cyano-3-hydroxy-N-[4-(trifluoromethyl)phenyl]-2-hepten-6-ynamide]",plasma creatinine,[1]; [7],tended to be at a normal level
same,proteinuria,[1]; [7],tended to be at a normal level
same,recipient kidney function,"[1]; rescue 20 mg/kg PO for 3 weeks, immediate effect",did not show an immediate improvement
same,proteinuria,[2]; Compound (I) 10 mg/kg day 28 to 60 after brief tacrolimus 1 mg/kg day 0-9,decreased the progression of proteinuria
same,plasma creatinine level,"[2]; Compound (I) 10 mg/kg day 28 to 60 after brief tacrolimus 1 mg/kg day 0-9, entire study period",< 1.5 mg/dL
same,proteinuria,[2]; Compound (I) 15 mg/kg day 28 to 60 after brief tacrolimus 1 mg/kg day 0-9,decreased the progression of proteinuria
same,plasma creatinine,"[2]; Compound (I) 15 mg/kg/day day 28 to 60 after brief tacrolimus, increased from week 3 to week 9",it was reversed and maintained in a normal level
same,approximate cumulative reduction in Banff score: fibro-intimal hyperplasia,[3]; [8],~53%
same,approximate cumulative reduction in Banff score: glomerulitis,[3]; [8],~38%
same,approximate cumulative reduction in Banff score: interstitial inflammation,[3]; [8],~50%
same,approximate cumulative reduction in Banff score: mesangiolysis,[3]; [8],~33%
same,approximate cumulative reduction in Banff score: transplant glomerulopathy,[3]; [8],~89%
same,approximate cumulative reduction in Banff score: tubular atrophy,[3]; [8],~42%
same,approximate cumulative reduction in Banff score: tubulitis,[3]; [8],~70%
same,approximate cumulative reduction in Banff score: vasculitis,[3]; [8],~92%
same,Banff grade: Fibro-intimal Hyperplasia,[3]; [9],"++ ((++):Grade 2, Moderate); also recorded: − ((−):Grade 0, Normal)"
same,Banff grade: Glomerulitis,[3]; [9],"+ ((+):Grade 1, Mild); also recorded: − ((−):Grade 0, Normal); also recorded: ++ ((++):Grade 2, Moderate)"
same,Banff grade: Glomerulosclerosis,[3]; [9],"− ((−):Grade 0, Normal); also recorded: + ((+):Grade 1, Mild)"
same,Banff grade: Inflammation,[3]; [9],"+ ((+):Grade 1, Mild); also recorded: ++ ((++):Grade 2, Moderate)"
same,Banff grade: Mesangiolysis,[3]; [9],"− ((−):Grade 0, Normal); also recorded: + ((+):Grade 1, Mild)"
same,Banff grade: Transplant Glomerulopathy,[3]; [9],"− ((−):Grade 0, Normal); also recorded: + ((+):Grade 1, Mild)"
same,Banff grade: Tubular Atrophy,[3]; [9],"− ((−):Grade 0, Normal); also recorded: + ((+):Grade 1, Mild)"
same,Banff grade: Tubulitis,[3]; [9],"− ((−):Grade 0, Normal)"
same,Banff grade: Vasculitis,[3]; [9],"+++ ((+++):Grade 3, Severe); also recorded: + ((+):Grade 1, Mild)"
same,TGFβ gene expression (mRNA) in kidney graft,[4],inhibited TGFβ gene expression in a dose-dependent manner
same,production of antibody against donor GBM in plasma,[5]; 10 mg/kg PO day 0-9,a trend of reduced production of antibody against donor GBM
same,production of antibody against donor GBM in plasma,[5]; 20 mg/kg PO day 0-9,a trend of reduced production of antibody against donor GBM
same,plasma creatinine,[6]; 10 mg/kg PO day 0-9,maintained normal creatinine
same,proteinuria,[6]; 10 mg/kg PO day 0-9,undetectable proteinuria
same,plasma creatinine,[6]; 20 mg/kg PO day 0-9,maintained normal creatinine
same,proteinuria,[6]; 20 mg/kg PO day 0-9,undetectable proteinuria
